According to US7250422B2 (priority 2002, dated 2007):

Legend:
[1] = test system: mice; assay: Hot-plate test, morphine tolerance caused by repeated administration; format: in vivo; conditions: berberine 10 mg/kg i.p. 30 min before morphine 10 mg/kg s.c., six days, tested day 7; P<0.01; FIG. 4
[2] = test system: Male ICR mice; assay: Conditioned place preference test for psychological dependence on morphine; conditions: p<0.01, FIG. 1
Description: (§1) 10 to 15 mice per group were used.

[3] = test system: rats; conditions: intraperitoneal injection; cited from earlier work
[4] = test system: Male ICR mice; assay: Spontaneous locomotor activity increased by morphine (Video-tracking system); format: in vivo; conditions: for locomotor activity (steps): six days; for suppression of locomotor activity increased by morphine vs morphine control group: p<0.001
Experimental: as §1
Spontaneous locomotor activity was tested in a plastic chamber (26×30×30 cm) using a Video-tracking system. […] Immediately after the last administration, the mice were placed in the plastic chamber, and spontaneous locomotor activity was recorded for 30 min and analyzed using a computer program.

[5] = test system: Male ICR mice; conditions: berberine 1, 3 and 10 mg/kg i.p. 30 min before morphine 5 mg/kg s.c.; FIG. 3

SMILES	inhibition of the development of morphine tolerance (AUC) [1]	inhibition of psychological dependence on morphine ([2]; berberine 1 or 2 mg/kg orally one hour before morphine 5 mg/kg i.p., equal to saline control)	LD50 [3] [mg/kg]	locomotor activity (steps) ([4]; berberine 1 mg/kg orally one hour before morphine 10 mg/kg, recorded 30 min)	suppression of locomotor activity increased by morphine vs morphine control group ([4]; berberine 1 mg/kg orally) [%]	locomotor activity (steps) ([4]; berberine 2 mg/kg orally one hour before morphine 10 mg/kg, recorded 30 min)	suppression of locomotor activity increased by morphine vs morphine control group ([4]; berberine 2 mg/kg orally) [%]	effect on the analgesic effect of morphine (AUC of % MPE) [5]	development of psychological dependence (testing time minus preconditioning time) ([2]; morphine control, 5 mg/kg i.p. on days 3, 5, 7, 9)	locomotor activity (steps by a forefoot) ([4]; only morphine 10 mg/kg once per day for six days, recorded 30 min) [steps]
COc1ccc2cc3[n+](cc2c1OC)CCc1cc2c(cc1-3)OCO2 [berberine, 7,8,13,13a-tetradihydro-9,10-dimethoxy-2,3-(methyldioxy)berbinium]	significantly inhibited	completely inhibited	90	19744	61	20027	60	rarely affect the analgesic effect of morphine	–	–
CN1CC[C@]23c4c5ccc(O)c4O[C@H]2[C@@H](O)C=C[C@H]3[C@H]1C5 [morphine]	–	–	–	–	–	–	–	–	significant psychological dependence	50242
